Consider 26 molecules from patent publication US20240360165A1, “INHIBITORS OF CYCLIN DEPENDENT KINASE 7 (CDK7)” (Syros Pharmaceuticals, Inc., priority 2016, published 2024).

Structures are written as SMILES. Where two headings read alike, the source gives them in different places.

Experiment [1] has as its target CDK7/Cyclin H/MAT1 complex (Homo sapiens, UniProt P50613). Briefly: CDK7 inhibition assay (Caliper/LabChip EZ Reader kinase assay). Type of experiment: biochemical. The note with it: Table 1; CDK7/Cyclin H/MAT1 6 nM, ATP 2 mM, 35 min at 27° C. The procedure, abridged:
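A Perkin Elmer Caliper/LabChip EZ Reader (Waltham, MA) platform served as the basis for this CDK7 kinase inhibition assay. The work was carried out by Biortus Biosciences, located in Jiangyin, Jiangsu Province, P.R. of China. Each CDK studied had its own kinase assay, and compounds were evaluated for their ability to block CDK7 activity.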

For experiment [2], the target named is CDK9/Cyclin T1 complex (Homo sapiens, UniProt P50750). In words: CDK9 inhibition assay (Caliper/LabChip EZ Reader kinase assay). In kind it is biochemical. As to conditions: Table 1; CDK9/Cyclin T1 8 nM, ATP 2 mM, 15 min at 27° C. A digest of the protocol: (§1)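 Activity read as fluorescent peptide conversion on a LabChip EZ Reader. For CDK2/Cyclin E1 (0.5 nM), substrate was 5-FAM-CDK7tide (2 μM) with 2 mM MgCl2; for CDK9/Cyclin T1 (8 nM), 5-FAM-CDK9tide (2 μM) with 10 mM MgCl2.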
CDK9/Cyclin T1 complex, sequence (P50750 whole entry, species assumed): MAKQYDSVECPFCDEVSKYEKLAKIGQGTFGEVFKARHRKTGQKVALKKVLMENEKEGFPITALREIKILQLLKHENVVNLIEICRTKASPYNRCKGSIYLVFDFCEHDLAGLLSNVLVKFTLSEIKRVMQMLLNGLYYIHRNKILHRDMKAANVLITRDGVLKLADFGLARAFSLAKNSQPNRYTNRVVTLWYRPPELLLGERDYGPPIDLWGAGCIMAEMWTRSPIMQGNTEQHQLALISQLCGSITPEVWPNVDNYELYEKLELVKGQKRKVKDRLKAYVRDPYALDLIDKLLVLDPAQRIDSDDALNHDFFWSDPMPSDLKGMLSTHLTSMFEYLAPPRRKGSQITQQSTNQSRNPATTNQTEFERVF
CDK9/Cyclin T1 complex, sequence (O60563 whole entry partner, species assumed): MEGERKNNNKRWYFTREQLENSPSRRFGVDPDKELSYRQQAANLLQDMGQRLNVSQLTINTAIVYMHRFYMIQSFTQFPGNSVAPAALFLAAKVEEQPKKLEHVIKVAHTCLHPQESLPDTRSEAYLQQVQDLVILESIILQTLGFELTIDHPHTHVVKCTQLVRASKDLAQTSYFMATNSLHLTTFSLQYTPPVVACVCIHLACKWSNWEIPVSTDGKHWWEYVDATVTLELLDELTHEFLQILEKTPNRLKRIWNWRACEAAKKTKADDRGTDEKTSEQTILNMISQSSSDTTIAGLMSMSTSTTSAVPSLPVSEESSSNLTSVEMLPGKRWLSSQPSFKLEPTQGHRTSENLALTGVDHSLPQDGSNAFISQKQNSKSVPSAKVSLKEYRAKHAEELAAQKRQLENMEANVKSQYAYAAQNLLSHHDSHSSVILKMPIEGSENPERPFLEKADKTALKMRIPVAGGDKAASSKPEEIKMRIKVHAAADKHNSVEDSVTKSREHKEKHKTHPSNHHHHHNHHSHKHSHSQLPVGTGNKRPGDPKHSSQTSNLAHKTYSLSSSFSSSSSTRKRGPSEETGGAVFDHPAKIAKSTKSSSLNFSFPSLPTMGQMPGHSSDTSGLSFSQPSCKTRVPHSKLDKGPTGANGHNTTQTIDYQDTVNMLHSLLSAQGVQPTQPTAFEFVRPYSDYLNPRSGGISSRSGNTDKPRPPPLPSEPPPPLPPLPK

The target of experiment [3] is T1, CDK12 (aa686-1082)/Cyclin K complex (Homo sapiens, UniProt Q9NYV4).
T1 construct: CDK12 (aa686-1082)/Cyclin K complex
T1 sequence (Q9NYV4 686-1082, species assumed): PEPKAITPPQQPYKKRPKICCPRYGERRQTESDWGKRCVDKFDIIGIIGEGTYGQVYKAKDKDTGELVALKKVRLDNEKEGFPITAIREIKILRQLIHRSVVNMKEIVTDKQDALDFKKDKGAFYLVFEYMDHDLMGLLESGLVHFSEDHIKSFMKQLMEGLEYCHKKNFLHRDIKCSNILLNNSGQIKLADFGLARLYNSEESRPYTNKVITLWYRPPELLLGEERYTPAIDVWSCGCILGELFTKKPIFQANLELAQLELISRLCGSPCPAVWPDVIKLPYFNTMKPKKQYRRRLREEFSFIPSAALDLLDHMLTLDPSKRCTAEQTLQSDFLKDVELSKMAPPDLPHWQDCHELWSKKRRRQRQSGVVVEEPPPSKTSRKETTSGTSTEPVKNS
T1 sequence (O75909 whole entry partner, species assumed, the tested form may be a part): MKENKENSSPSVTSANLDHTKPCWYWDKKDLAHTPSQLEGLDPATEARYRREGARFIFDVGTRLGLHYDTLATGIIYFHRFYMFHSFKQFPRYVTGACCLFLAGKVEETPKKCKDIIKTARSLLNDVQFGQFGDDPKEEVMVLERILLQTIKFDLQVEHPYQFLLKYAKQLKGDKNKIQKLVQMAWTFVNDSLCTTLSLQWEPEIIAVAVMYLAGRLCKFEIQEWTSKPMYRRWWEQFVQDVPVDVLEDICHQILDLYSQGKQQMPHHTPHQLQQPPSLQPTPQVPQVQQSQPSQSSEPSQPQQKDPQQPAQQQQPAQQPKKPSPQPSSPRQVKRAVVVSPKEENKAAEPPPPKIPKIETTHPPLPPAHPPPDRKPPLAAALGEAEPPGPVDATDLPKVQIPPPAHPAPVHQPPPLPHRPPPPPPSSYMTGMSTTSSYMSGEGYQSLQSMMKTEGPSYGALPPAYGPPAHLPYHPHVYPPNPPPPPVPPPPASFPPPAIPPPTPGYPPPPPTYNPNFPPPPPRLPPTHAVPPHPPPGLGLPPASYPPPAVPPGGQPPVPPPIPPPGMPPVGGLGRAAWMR
In words: CDK12 inhibition assay (Caliper/LabChip EZ Reader kinase assay). In kind it is biochemical. The note with it: Table 1; CDK12 (aa686-1082)/Cyclin K 50 nM, ATP 2 mM, 3 hr at 27° C.

Experiment [4] concerns the target CDK2/Cyclin E1 complex (Homo sapiens, UniProt P24941). Briefly: CDK2 inhibition assay (Caliper/LabChip EZ Reader kinase assay). Type of experiment: biochemical. As to conditions: Table 1; CDK2/Cyclin E1 0.5 nM, ATP 2 mM, 35 min at 27° C. The procedure, abridged:
as §1

For experiment [5], the system named is HCC70 cells. Briefly: Inhibition of proliferation of HCC70 cells (CyQUANT Direct Cell Proliferation Assay, 72 hour). In kind it is cell-based, human. As to conditions: read-out: Inhibition of Proliferation of HCC70 Cells (calculated IC50). On the procedure: HCC70 cells are a cell line derived from human triple negative breast cancer. […] Known CDK inhibitors dinaciclib or N-((1S,3R)-3-((5-chloro-4-(1H-indol-3-yl) pyrimidin-2-yl)amino)cyclohexyl)-5-((E)-4-(dimethylamino)but-2-enamido)picolinamide and triptolide were used as positive controls. […] The cells were cultured at 37° C. in a humidified chamber in the presence of 5% CO2. Proliferation assays were conducted over a 72 hour time period. CyQUANT® Direct Cell Proliferation Assay (Life Technologies, Chicago, IL USA) was used to assess the anti-proliferative effects of the compounds following manufacturer's directions and utilizing the reagents supplied with the CyQUANT® Direct Cell kit.

Experiment [6] concerns A673 cells. Briefly: Inhibition of proliferation of A673 cells (CyQUANT, 72 hour). Type of experiment: cell-based, human. As to conditions: A673 cells, 72 hour, CyQUANT, read-out: Inhibition of Proliferation of A673 Cells (calculated IC50). A digest of the protocol: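 Proliferation read-out by CyQUANT after a 72 h exposure, compounds spanning 4 μM–[…] in half-log steps. A673 cells cultured at 37° C under 5% CO2 in DMEM supplemented with 10% FBS plus 1 mM sodium pyruvate.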

CDK7/Cyclin H/MAT1 complex, sequence (P50613 whole entry, species assumed): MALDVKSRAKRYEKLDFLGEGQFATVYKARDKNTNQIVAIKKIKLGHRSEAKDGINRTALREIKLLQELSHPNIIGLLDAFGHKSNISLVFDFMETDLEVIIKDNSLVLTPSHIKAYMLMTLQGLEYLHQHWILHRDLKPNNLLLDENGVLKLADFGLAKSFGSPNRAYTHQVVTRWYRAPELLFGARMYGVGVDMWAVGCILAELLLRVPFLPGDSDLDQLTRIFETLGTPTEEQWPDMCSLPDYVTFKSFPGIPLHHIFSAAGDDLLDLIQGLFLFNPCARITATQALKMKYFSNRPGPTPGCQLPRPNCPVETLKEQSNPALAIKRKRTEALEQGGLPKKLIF
CDK7/Cyclin H/MAT1 complex, sequence (P51946 whole entry partner, species assumed): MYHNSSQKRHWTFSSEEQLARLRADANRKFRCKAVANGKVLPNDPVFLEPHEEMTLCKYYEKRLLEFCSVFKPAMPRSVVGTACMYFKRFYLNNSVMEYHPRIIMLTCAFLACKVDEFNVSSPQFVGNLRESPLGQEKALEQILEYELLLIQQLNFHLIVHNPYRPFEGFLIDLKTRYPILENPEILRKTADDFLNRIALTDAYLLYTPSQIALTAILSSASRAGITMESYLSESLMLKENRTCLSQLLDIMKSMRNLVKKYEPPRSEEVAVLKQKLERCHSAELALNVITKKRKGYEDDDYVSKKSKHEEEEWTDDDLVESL
CDK7/Cyclin H/MAT1 complex, sequence (P51948 whole entry partner, species assumed): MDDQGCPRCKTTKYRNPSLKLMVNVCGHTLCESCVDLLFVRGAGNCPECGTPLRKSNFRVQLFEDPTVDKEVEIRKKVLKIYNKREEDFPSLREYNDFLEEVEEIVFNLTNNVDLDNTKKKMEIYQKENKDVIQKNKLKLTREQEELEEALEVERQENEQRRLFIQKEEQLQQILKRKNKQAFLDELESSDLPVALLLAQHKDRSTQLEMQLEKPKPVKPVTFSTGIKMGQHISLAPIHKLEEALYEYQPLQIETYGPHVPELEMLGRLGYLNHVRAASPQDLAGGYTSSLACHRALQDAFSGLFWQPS

With `COC1CCN(C(=O)c2ccc3c(-c4nc(N[C@H]5CCCNC5)ncc4C(F)(F)F)c[nH]c3c2)C1` (single isomer, unassigned) [Compound 281], the IC50 is under 20 nM in experiment [1]; 200 to 5000 nM in experiment [2]; 200 to 5000 nM in experiment [3]; 200 to 5000 nM in experiment [4]; 100 to 1000 nM in experiment [5] (Homo sapiens, HCC70, 72 h).
For `O=C(c1ccc2c(-c3nc(N[C@H]4CCCNC4)ncc3C(F)(F)F)c[nH]c2c1)N1CC[C@](O)(C(F)(F)F)C1` (single isomer, unassigned) [Compound 299], the IC50 was under 20 nM in experiment [1]; 200 to 5000 nM in experiment [2]; 200 to 5000 nM in experiment [3]; 200 to 5000 nM in experiment [4]; 1000 to 5000 nM in experiment [5] (Homo sapiens, HCC70, 72 h).
Take `O=C(c1ccc2c(-c3nc(N[C@H]4CCCNC4)ncc3C(F)(F)F)c[nH]c2c1)N1CC[C@@](O)(C(F)(F)F)C1` (single isomer, unassigned) [Compound 300]: the IC50 was under 20 nM in experiment [1]; 200 to 5000 nM in experiment [2]; 200 to 5000 nM in experiment [3]; 200 to 5000 nM in experiment [4]; 100 to 1000 nM in experiment [5] (Homo sapiens, HCC70, 72 h).
`CC[C@@]1(O)CCN(C(=O)c2ccc3c(-c4nc(N[C@H]5CCCNC5)ncc4C(F)(F)F)c[nH]c3c2)C1` (single isomer, unassigned) [Compound 309]: the IC50 in experiment [1] was 20 to 200 nM; in experiment [2], over 5000 nM; in experiment [3] it was 200 to 5000 nM; in experiment [4] it was over 5000 nM; in experiment [5] (Homo sapiens, HCC70, 72 h), 1000 to 5000 nM.
Consider `CC[C@]1(O)CCN(C(=O)c2ccc3c(-c4nc(N[C@H]5CCCNC5)ncc4C(F)(F)F)c[nH]c3c2)C1` (single isomer, unassigned) [Compound 347], for which the IC50 in experiment [1] is 20 to 200 nM; in experiment [2] it was over 5000 nM; in experiment [3], 200 to 5000 nM; in experiment [4] it was over 5000 nM; in experiment [5] (Homo sapiens, HCC70, 72 h) it was 100 to 1000 nM.
As to `CP(C)(=O)c1cccc2c(-c3nc(N[C@H]4CCCNC4)ncc3C(F)(F)F)c[nH]c12` (single isomer, unassigned) [Compound 353], the IC50 was under 20 nM in experiment [1]; over 5000 nM in experiment [2]; 200 to 5000 nM in experiment [3]; 200 to 5000 nM in experiment [4]; under 100 nM in experiment [5] (Homo sapiens, HCC70, 72 h).
For the molecule `CC1CCNCC1Nc1ncc(C(F)(F)F)c(-c2c[nH]c3ccccc23)n1` (single isomer, unassigned) [Compound 372], the IC50 in experiment [1] was 20 to 200 nM; in experiment [2], 200 to 5000 nM; in experiment [3] it was 200 to 5000 nM; in experiment [4], 200 to 5000 nM; in experiment [5] it was 100 to 1000 nM.
Take `CC1CCNCC1Nc1ncc(C(F)(F)F)c(-c2c[nH]c3ccccc23)n1` (single isomer, unassigned) [Compound 373]: the IC50 is 20 to 200 nM in experiment [1]; over 5000 nM in experiment [2]; over 5000 nM in experiment [3]; over 5000 nM in experiment [4]; 1000 to 5000 nM in experiment [5].
For the molecule `CSc1cnc(N[C@H]2CCCNC2)nc1-c1c[nH]c2cc(C#N)ccc12` [Compound 272, 3-[5-methylsulfanyl-2-[[(3S)-3-piperidyl]amino]pyrimidin-4-yl]-1H-indole-6-carbonitrile], the IC50 in experiment [1] was under 20 nM; in experiment [2], 200 to 5000 nM; in experiment [3], 200 to 5000 nM; in experiment [4], 200 to 5000 nM; in experiment [6] (Homo sapiens, A673, 72 h), 20 to 200 nM.
With `CCS(=O)(=O)c1ccc2c(-c3nc(N[C@H]4CCCNC4)ncc3C(F)(F)F)c[nH]c2c1` [Compound 274], the IC50 was under 20 nM in experiment [1]; 200 to 5000 nM in experiment [2]; 200 to 5000 nM in experiment [3]; 200 to 5000 nM in experiment [4]; 20 to 200 nM in experiment [6] (Homo sapiens, A673, 72 h).
In the case of `CCc1cnc(N[C@H]2CCCNC2)nc1-c1n[nH]c2cc(C#N)ccc12` [Compound 275, (S)-3-(5-ethyl-2-(piperidin-3-ylamino)pyrimidin-4-yl)-1H-indazole-6-carbonitrile], the IC50 is under 20 nM in experiment [1]; 200 to 5000 nM in experiment [2]; 200 to 5000 nM in experiment [3]; 200 to 5000 nM in experiment [4]; 20 to 200 nM in experiment [6] (Homo sapiens, A673, 72 h).
Turning to `CC(C)c1cnc(N[C@H]2CCCNC2)nc1-c1n[nH]c2nc(C#N)ccc12` [Compound 276, (S)-3-(5-isopropyl-2-(piperidin-3-ylamino)pyrimidin-4-yl)-1H-pyrazolo[3,4-b]pyridine-6-carbonitrile], the IC50 is 20 to 200 nM in experiment [1]; over 5000 nM in experiment [2]; over 5000 nM in experiment [3]; over 5000 nM in experiment [4]; 200 to 5000 nM in experiment [6] (Homo sapiens, A673, 72 h).
Regarding `FC(F)(F)c1cnc(N[C@H]2CCCNC2)nc1-c1c[nH]c2cc(-c3cc[nH]n3)ccc12` [Compound 291, N-[(3S)-3-piperidyl]-4-[6-(1H-pyrazol-3-yl)-1H-indol-3-yl]-5-(trifluoromethyl) pyrimidin-2-amine], the IC50 is 20 to 200 nM in experiment [1]; 200 to 5000 nM in experiment [2]; 200 to 5000 nM in experiment [3]; over 5000 nM in experiment [4]; 20 to 200 nM in experiment [6].
In the case of `Nc1nc2c(-c3ccc4c(-c5nc(N[C@H]6CCCNC6)ncc5C(F)(F)F)c[nH]c4c3)cccc2s1` [Compound 312], the IC50 in experiment [1] was 20 to 200 nM; in experiment [3], 200 to 5000 nM; in experiment [5] (Homo sapiens, HCC70, 72 h), 100 to 1000 nM.
Take `N#Cc1cc(-c2ccc3c(-c4nc(N[C@H]5CCCNC5)ncc4C(F)(F)F)c[nH]c3c2)ccc1O` [Compound 315]: the IC50 in experiment [1] is 20 to 200 nM; in experiment [3] it was 200 to 5000 nM; in experiment [5] it was 1000 to 5000 nM.
With `FC(F)(F)c1cnc(NC2CCCNC2)nc1-c1c[nH]c2cc(C=Cc3ccccc3)ccc12` (centres unmarked) [Compound 317], the IC50 in experiment [1] was 20 to 200 nM; in experiment [3] it was 200 to 5000 nM; in experiment [5] (Homo sapiens, HCC70, 72 h) it was 1000 to 5000 nM.
Take `FC(F)(F)c1cc2[nH]cc(-c3ccc4c(-c5nc(N[C@H]6CCCNC6)ncc5C(F)(F)F)c[nH]c4c3)c2cn1` [Compound 319]: the IC50 in experiment [1] is 20 to 200 nM; in experiment [3] it was 200 to 5000 nM; in experiment [5], 1000 to 5000 nM.
For `Cn1cc(-c2ccc3c(-c4nc(N[C@H]5CCCNC5)ncc4C(F)(F)F)c[nH]c3c2)c2cnc(C(F)(F)F)cc21` [Compound 320], the IC50 in experiment [1] is 20 to 200 nM; in experiment [3], 200 to 5000 nM; in experiment [5] (Homo sapiens, HCC70, 72 h), 1000 to 5000 nM.
Regarding `Nc1ncc2cccc(-c3ccc4c(-c5nc(N[C@H]6CCCNC6)ncc5C(F)(F)F)c[nH]c4c3)c2n1` [Compound 322], the IC50 in experiment [1] was under 20 nM; in experiment [3], 200 to 5000 nM; in experiment [5] it was 100 to 1000 nM.
The like results for `OCCc1cccc(-c2ccc3c(-c4nc(N[C@H]5CCCNC5)ncc4C(F)(F)F)c[nH]c3c2)c1` [Compound 324] were, in that order, 20 to 200 nM, 200 to 5000 nM and 100 to 1000 nM.
For `FC(F)(F)c1cnc(N[C@H]2CCCNC2)nc1-c1c[nH]c2cc(-c3ccc4ccncc4c3)ccc12` [Compound 325], in that order: 20 to 200 nM, 200 to 5000 nM and 100 to 1000 nM.
The like results for `NS(=O)(=O)c1cccc(-c2ccc3c(-c4nc(N[C@H]5CCCNC5)ncc4C(F)(F)F)c[nH]c3c2)c1` [Compound 326] were, in that order, 20 to 200 nM, 200 to 5000 nM and 100 to 1000 nM.
Regarding `CCOc1ccccc1-c1ccc2c(-c3nc(NC4CCCNC4)ncc3C(F)(F)F)c[nH]c2c1` (centres unmarked) [Compound 327], the IC50 in experiment [1] is 20 to 200 nM; in experiment [3], 200 to 5000 nM; in experiment [5] (Homo sapiens, HCC70, 72 h), 100 to 1000 nM.
For `FC(F)(F)c1cnc(N[C@H]2CCCNC2)nc1-c1c[nH]c2cc(-c3ccc4cn[nH]c4c3)ccc12` [Compound 329], in that order: 20 to 200 nM, 200 to 5000 nM and 100 to 1000 nM.
In the case of `NS(=O)(=O)c1ccc(-c2ccc3c(-c4nc(N[C@H]5CCCNC5)ncc4C(F)(F)F)c[nH]c3c2)cc1` [Compound 331], the IC50 in experiment [1] is 20 to 200 nM; in experiment [3] it was 200 to 5000 nM; in experiment [5] it was 100 to 1000 nM.
With `Cn1ncc2ccc(-c3ccc4c(-c5nc(N[C@H]6CCCNC6)ncc5C(F)(F)F)c[nH]c4c3)cc21` [Compound 337], the IC50 was 20 to 200 nM in experiment [1], 200 to 5000 nM in experiment [3] and 100 to 1000 nM in experiment [5].
